# Test results reported in a melting point compilation (Tetko et al.; mined from patent text by program, amines drawn as free bases though some values may be those of a salt).
row,melting point [°C],SMILES
1,130 to 131,OCCCNc1cc(-n2cccn2)nc(-c2cccs2)n1
2,> 300,Nc1nc2c(C(CC(=O)O)C3CCCCC3)c[nH]c2c(=O)[nH]1 (stereo unspecified)
3,108 to 110,CC(C)(C)c1cc(SCCC(=O)O)cc(C(C)(C)C)c1O
4,128,CCOC(=O)C1CC(O)CN1C(=O)c1ccc(OC)c(OC)c1 (stereo unspecified)
5,188 to 191,CCOC(=O)c1ncn2c1[C@@H]1CCN1C(=O)c1sccc1-2
6,98,COc1ccc(N=C(C#Cc2ccccc2)N2CCN(Cc3ccc(F)cc3)CC2)cc1
7,160 to 163,O=CCCNC(=O)c1cc(Br)c(Br)[nH]1
8,142 to 143,CCOc1nn(Cc2cc(OCc3nc(-c4ccccc4)oc3C)no2)cc1CCC(=O)O
9,150,COC(=O)C=Cc1ccc(Br)nc1
10,125,O=C(O)C1=C2OCOc3cccc1c32
11,127 to 128,Cc1cc(C)c(-c2cn(C)c3nc(N(C)C)n(C)c(=O)c23)c(C)c1
12,90,O=C(O)Cc1cccc(CCNC(=O)C2Cc3ccccc3N2S(=O)(=O)c2ccc(-c3cccc(C(F)(F)F)c3)cc2)c1 (stereo unspecified)
13,160 to 162,CCOC(=O)C1=C(COCc2nnn(CCNc3cc(Cl)ncn3)n2)NC(C)=C(C(=O)OC)C1c1cccc(Cl)c1Cl (stereo unspecified)
14,97 to 98,OCCOc1cn(-c2ccc(F)cc2)c2cc(Cl)ccc12
15,167,COc1ccc(-n2c(-c3ccccc3)cnc2S)cc1
16,202 to 203,Cc1ccccc1NC(=O)CN1C[C@@H](C)N(S(=O)(=O)c2cccc(N)c2)[C@@H](C)C1
17,109 to 110,CC(C)(C)OC(=O)COc1ccc(NC(=O)OCc2ccccc2)cc1
18,220,OC(Cn1ccnc1)(c1ccc(F)cc1)c1ccc(-c2ccccc2)cc1 (stereo unspecified)
19,194 to 197,Cc1ccc2[nH]c(C(=O)c3ccc(Cl)cc3)c(CC(=O)O)c2c1
20,70 to 70.5,FC(F)C(F)(F)Sc1nc(-c2ccccc2)c(-c2ccccc2)n1COCc1ccccc1
21,235,CN(C(=O)CN(C(=O)CNC(=O)Nc1cccc(N2CCCCC2)c1)c1ccccc1)c1ccccc1
22,114,CCCCOc1ccc(S(=O)(=O)C2(C(=O)OCC)CCN(Cc3ccc(F)cc3)CC2)cc1
23,99 to 101,CCOC(=O)Cn1ncc(-c2ccccc2)c1-c1ccc(N(C)C)cc1

# Continued, compound first:
row,SMILES,melting point [°C]
1,CCCc1c(OCCCS(=O)(=O)c2ccc(CC(=O)OC)cn2)ccc(C(C)=O)c1O,124 to 126
2,Cc1c(C(=O)Nc2ncc(CO)s2)nnn1Cc1ccc(Cl)c(Cl)c1,170
3,COc1cc(F)ccc1C(=O)Nc1cc(-c2c(-c3ccc(F)c(C)c3)nc3cccnn23)ccn1,251 to 252
4,CC(C)C(O)C(O)C(O)C(CC1CCCCC1)NC(=O)OC(C)(C)C (stereo unspecified),151 to 152
5,C=C(Sc1ccc(C(C)(C)C)cc1)S(=O)(=O)c1ccc(Cl)cc1,74 to 79
6,O=[N+]([O-])c1ccc(-c2nnsc2-c2ccc([N+](=O)[O-])cc2)cc1,185 to 186
7,O=C(C=Cc1ccc(C(F)(F)F)cc1)N1CCC(O)CC1,124 to 135
8,O=[N+]([O-])c1ccc(-c2nc[nH]c2-c2ccc([N+](=O)[O-])cc2)cc1,294
9,CC(C)(C)C(=O)Oc1ccc2nc(S(N)(=O)=O)sc2c1,167
10,CCc1oc2ccccc2c1C(=O)c1ccc(OC(C)C(=O)O)cc1 (stereo unspecified),182 to 184
11,CC(Cc1cccc(N)c1)NC=O (stereo unspecified),107 to 108
12,O=C1NC(=O)C(CC#Cc2ccc(Cl)cc2)(Sc2nc3ccccc3o2)S1 (stereo unspecified),137 to 139
13,CCSc1nc(C(C)(C)C)c[nH]1,116 to 120
14,CCOC(=O)CCCCCCC1C(=O)NC(=O)N1C1(O)CCCCC1 (stereo unspecified),62 to 63
15,COc1ccc(CN2C(=O)C(C)(c3cc(N(C)C(=O)C4CCCN4C(C)=O)ccc3Cl)c3cc(Cl)ccc32)c(OC)c1 (stereo unspecified),74
16,C[C@H](C=C[C@H](C)[C@H](C)CO)[C@H]1CC[C@H]2C3=CCC4CC(=O)CC[C@]4(C)[C@H]3CC[C@]12C (stereo partly specified),192 to 193
17,CCOC(=O)COC(c1cccc(-c2nnc(Nc3ccc(Cl)c(Cl)c3)s2)c1)c1cccc(C(F)(F)F)c1 (stereo unspecified),135 to 136
18,CCOC(=O)N1CCN(C2=Nc3cc(Br)ccc3N3CCc4cccc2c43)CC1,128 to 131
19,CC(C)(O)C#Cc1ncn2c1[C@@H]1CCCN1C(=O)c1c(Br)cccc1-2,227 to 228
20,COn1c(=O)c2ccccc2n(-c2c(Cl)ccc(C)c2Cl)c1=O,211 to 213
21,CCOC(=O)CCCCC(NS(=O)(=O)c1ccccc1)c1ccc2ccccc2c1 (stereo unspecified),81 to 84
22,O=C(O)c1ccc(COCc2csc3nc(C(=O)NCc4ccccc4)[nH]c(=O)c23)cc1,268 to 269
23,Cc1ccc(C2(O)c3ccccc3C(=O)c3ccccc32)cc1,203 to 209
24,S=C(NCCCN1CCN(Cc2ccc(Cl)cc2)CC1)Nc1ccccc1,155 to 156

row,SMILES,melting point [°C]
1,CCOC(=O)c1nc(NC)sc1-c1nc2ccc(C)cn2c1C,225 to 227
2,CN1CCN(S(=O)(=O)c2ccccc2NC(=O)N[C@@H](Cc2ccc(NC(=O)c3c(Cl)cncc3Cl)cc2)C(=O)O)CC1,189
3,FC(F)(c1ccccc1)C(F)(F)c1ccccc1CBr,70 to 77
4,COc1ccc(C2=NN(C3CCCC3)C(=O)[C@H]3CC=CC[C@@H]23)cc1Cl (relative stereo),201 to 202
5,CCCN1CC(NC(=O)C(C)(C)C)CC2c3cccc4[nH]c(Cl)c(c34)CC21 (stereo unspecified),146 to 147
6,CC1(C)C2CC3CCC(=O)OC3C1C2 (stereo unspecified),57 to 60
7,CC(=O)Oc1c(C)c(C)c2c(c1C)CCC(C)(CCBr)O2 (stereo unspecified),102 to 103
8,Fc1ccc(-c2[nH]nc(Nc3ccccc3)c2-c2ccncc2)cc1,218 to 219
9,COc1cc(C=O)ccc1OC(C)c1nc(-c2ccccc2)oc1C (stereo unspecified),104 to 105
10,CCOC(=O)c1nnc2n1-c1ccccc1C(c1ccccc1F)=NC2,195 to 197
11,Cc1ccnc(N2CCN(CCCCC3Sc4ccccc4NC3=S)CC2)c1 (stereo unspecified),119
12,CCOC(=O)N1CC(=O)NC(=O)N1Cc1ccc(Cl)cc1,120
13,CCCN(C(=O)Cl)C(=O)CCl,40 to 44
14,Cc1cc2cc(O)ccc2[nH]1,124 to 126
15,Clc1ccc2onc(Cn3ccnc3)c2c1,100 to 102
16,Nc1nc(Nc2ccc(N3CCOCC3)cc2)sc1C(=O)c1c(Cl)cncc1Cl,292
17,CCOC(=O)C(Cl)=Cc1cc(-n2ncc(C(F)(F)F)cc2=O)c(F)cc1Cl,139 to 140
18,C#CCOc1cc(-c2ncc(C(F)(F)F)cc2Cl)c(F)cc1Cl,97 to 98
19,COC(=O)CN1C(=O)CC1SCc1ccc(OC)cc1 (stereo unspecified),45 to 46
20,CNC(=O)c1ccc(N2CCNCC2)c(F)c1,174 to 193
21,CCOC(=O)c1ccc(NC(=O)c2ccc3c(c2)C(C)(C)CC(=O)N3C)cc1,175 to 177
22,NC(=O)c1cc(N(Cc2c(F)c(F)c(C(F)(F)F)c(F)c2F)C(=O)C(F)(F)F)ccc1OC(=O)C(F)(F)F,179 to 180
23,Cn1c2ccccc2c2ccc3c(c21)C(=O)OC3=O,> 300
24,N#Cc1ccc(ON=C2CCCC(C(=O)O)C2)cc1 (stereo unspecified),153 to 154
